Like-named read-outs stand apart in the source and are kept apart here.
How the values were obtained:
wild-type (WT) HIV = experiment: EC50 against wild-type HIV; type: cell-based
wild type HIV RT = wild type HIV RT (Human immunodeficiency virus type 1 group M subtype B, UniProt P04585); experiment: IC50 against wild-type HIV reverse transcriptase; type: biochemical
Procedure: Compounds of the invention were tested against the wild-type and four mutant HIV reverse transcriptases. The results are listed in Table 1 and Table 2 as EC50 (nM) and IC50 (nM). In Tables 1 and 2, A represents <50 nM, B is between 50 and 100 nM, and C is >100 nM. ND is not determined. […]

[1] = Table 2, wild-type, read-out: EC50 WT
[2] = Human immunodeficiency virus 1, read-out: EC50 WT (nM)
[3] = Human immunodeficiency virus 1, read-out: EC50 WT

Row | Compound | EC50 (wild-type (WT) HIV; [1]) [nM] | IC50 (wild type HIV RT; Table 2, wild-type RT) [nM] | EC50 (wild-type (WT) HIV; [2]) [nM] | IC50 (wild type HIV RT; Table 1, wild-type RT) [nM] | EC50 (wild-type (WT) HIV; [3]) [nM]
1 | NS(=O)(=O)c1ccc(NC(=O)CSc2nnc(Br)n2-c2c(Cl)cc(C3CCC3)c3ccccc23)c(Cl)c1 (single isomer, unassigned) [Compound 68] | < 50 | < 50 | – | – | –
2 | NS(=O)(=O)c1ccc(NC(=O)CSc2nnc(Br)n2-c2c(Cl)cc(C3CCC3)c3ccccc23)c(Cl)c1 (single isomer, unassigned) [Compound 69] | < 50 | < 50 | – | – | –
3 | COc1ccc2c(C)ccc(-n3c(Br)nnc3SCC(=O)Nc3ccc(C(=O)O)cc3Cl)c2c1 [Compound 15] | – | – | < 50 | < 50 | –
4 | Cc1cc(C2CC2)cc(Cl)c1-n1c(Br)nnc1SCC(=O)Nc1ccc(C(=O)O)cc1Cl [Compound 20] | – | – | < 50 | < 50 | –
5 | CC(Sc1nnc(Br)n1-c1ccc(C2CC2)c2ccccc12)C(=O)Nc1ccc(S(N)(=O)=O)cc1Cl (centres unmarked) [Compound 44] | – | < 50 | – | – | < 50
6 | NS(=O)(=O)c1ccc(NC(=O)CSc2nnc(Br)n2-c2ccc(C3CC3)c3ccccc23)c(Cl)c1 [Compound 45] | < 50 | < 50 | – | – | –
7 | NS(=O)(=O)c1ccc(NC(=O)CSc2nnc(Br)n2-c2ccc(C3CC3)cc2)c(Cl)c1 [Compound 46] | – | < 50 | – | – | < 50
8 | CC(=O)OC(C)OC(=O)NS(=O)(=O)c1ccc(NC(=O)CSc2nnc(Br)n2-c2ccc(C3CC3)c3ccccc23)c(Cl)c1 (centres unmarked) [Compound 47] | < 50 | < 50 | – | – | –
9 | CC(=O)NS(=O)(=O)c1ccc(NC(=O)CSc2nnc(Br)n2-c2ccc(C3CC3)c3ccccc23)c(Cl)c1 [Compound 48] | < 50 | < 50 | – | – | –
10 | CCc1ccc(-n2c(Br)nnc2SCC(=O)Nc2ccc(S(N)(=O)=O)cc2Cl)c2c1CCCC2 [Compound 50] | < 50 | < 50 | – | – | –
11 | Cc1cc(S(N)(=O)=O)ccc1NC(=O)CSc1nnc(Br)n1-c1ccc(C)c2c1CCCC2 [Compound 51] | < 50 | < 50 | – | – | –
12 | Cc1ccc2c(C)ccc(-n3c(Br)nnc3SCC(=O)Nc3ccc(S(N)(=O)=O)cc3Br)c2c1 [Compound 52] | < 50 | < 50 | – | – | –
13 | Cc1cc(C)c2ccccc2c1-n1c(CF)nnc1SCC(=O)Nc1ccc(S(N)(=O)=O)cc1Cl [Compound 53] | < 50 | < 50 | – | – | –
14 | Cc1cc(C)c(-n2c(SCC(=O)Nc3ccc(S(N)(=O)=O)cc3Cl)nnc2C(F)(F)F)c2c1CCCC2 [Compound 54] | – | < 50 | – | – | < 50
15 | CCCc1ccc(-n2c(Br)nnc2SCC(=O)Nc2ccc(S(N)(=O)=O)cc2Cl)c2ccccc12 [Compound 55] | < 50 | < 50 | – | – | –
16 | CCCc1ccc(-n2c(Br)nnc2SCC(=O)Nc2ccc(S(N)(=O)=O)cc2C)c2ccccc12 [Compound 56] | < 50 | < 50 | – | – | –
17 | CCc1ccc(-n2c(Br)nnc2SCC(=O)Nc2ccc(S(N)(=O)=O)cc2Cl)c2ccccc12 [Compound 57] | < 50 | < 50 | – | – | –
18 | CCCC(=O)NS(=O)(=O)c1ccc(NC(=O)CSc2nnc(Br)n2-c2ccc(C3CC3)c3ccccc23)c(Cl)c1 [Compound 58] | – | < 50 | – | – | < 50

Row | Compound | EC50 (wild-type (WT) HIV; [1]) [nM] | IC50 (wild type HIV RT; Table 2, wild-type RT) [nM] | EC50 (wild-type (WT) HIV; [2]) [nM] | IC50 (wild type HIV RT; Table 1, wild-type RT) [nM] | EC50 (wild-type (WT) HIV; [3]) [nM]
19 | N[C@@H](CC(=O)NS(=O)(=O)c1ccc(NC(=O)CSc2nnc(Cl)n2-c2ccc(C3CC3)c3ccccc23)c(Cl)c1)C(=O)O [Compound 59] | < 50 | < 50 | – | – | –
20 | NCCC[C@@H](N)C(=O)NS(=O)(=O)c1ccc(NC(=O)CSc2nnc(Br)n2-c2ccc(C3CC3)c3ccccc23)c(Cl)c1 [Compound 60] | < 50 | < 50 | – | – | –
21 | Cc1cc(C2CC2)ccc1-n1c(Br)nnc1SCC(=O)Nc1ccc(S(N)(=O)=O)cc1Cl [Compound 61] | < 50 | – | – | – | –
22 | NCCC(N)C(=O)NS(=O)(=O)c1ccc(NC(=O)CSc2nnc(Br)n2-c2ccc(C3CC3)c3ccccc23)c(Cl)c1 (centres unmarked) [Compound 62] | < 50 | < 50 | – | – | –
23 | N[C@@H](CC(=O)NS(=O)(=O)c1ccc(NC(=O)CSc2nnc(Br)n2-c2ccc(C3CC3)c3ccccc23)c(Cl)c1)C(=O)O [Compound 63] | < 50 | < 50 | – | – | –
24 | N[C@@H](CCC(=O)NS(=O)(=O)c1ccc(NC(=O)CSc2nnc(Br)n2-c2ccc(C3CC3)c3ccccc23)c(Cl)c1)C(=O)O [Compound 64] | < 50 | < 50 | – | – | –
25 | NS(=O)(=O)c1ccc(NC(=O)CSc2nnc(Cl)n2-c2ccc(C3CC3)c3ccccc23)c(Cl)c1 [Compound 65] | < 50 | < 50 | – | – | –
26 | NS(=O)(=O)c1ccc(NC(=O)CSc2nnc(Br)n2-c2ccc(C3CC3)cc2OC(F)(F)F)c(Cl)c1 [Compound 66] | – | < 50 | – | – | < 50
27 | COCCC(=O)NS(=O)(=O)c1ccc(NC(=O)CSc2nnc(Br)n2-c2ccc(C3CC3)c3ccccc23)c(Cl)c1 [Compound 67] | – | < 50 | – | – | < 50
28 | Cc1cc(C2CC2)cc(Cl)c1-n1c(Br)nnc1SCC(=O)Nc1ccc(S(N)(=O)=O)cc1Cl [Compound 70] | – | < 50 | – | – | < 50
29 | O=C(O)CCC(=O)NS(=O)(=O)c1ccc(NC(=O)CSc2nnc(Br)n2-c2ccc(C3CC3)c3ccccc23)c(Cl)c1 [Compound 71] | 50 to 100 | < 50 | – | – | –
30 | Cc1cc(S(N)(=O)=O)ccc1NC(=O)CSc1nnc(Br)n1-c1ccc(C2CCC2)c2ccccc12 [Compound 72] | – | < 50 | – | – | < 50
31 | NS(=O)(=O)c1ccc(NC(=O)CSc2nnc(Br)n2-c2ccc(C3CCC3)c3ccccc23)c(Cl)c1 [Compound 73] | < 50 | < 50 | – | – | –
32 | CCCCC(=O)NS(=O)(=O)c1ccc(NC(=O)CSc2nnc(Br)n2-c2ccc(C3CC3)c3ccccc23)c(Cl)c1 [Compound 74] | < 50 | < 50 | – | – | –
33 | CCCCCC(=O)NS(=O)(=O)c1ccc(NC(=O)CSc2nnc(Br)n2-c2ccc(C3CC3)c3ccccc23)c(Cl)c1 [Compound 75] | < 50 | < 50 | – | – | –
34 | N#Cc1cccc2c(-n3c(SCC(=O)Nc4ccc(S(N)(=O)=O)cc4Cl)nnc3C(F)F)cccc12 [Compound 76] | – | 50 to 100 | – | – | < 50
35 | Cc1cc(S(N)(=O)=O)ccc1NC(=O)CSc1nnc(C(F)F)n1-c1cccc2c(C#N)cccc12 [Compound 77] | – | > 100 | – | – | –
